In patent US20020115642A1, “Beta-lactam antibiotics” (priority 2000, published 2002):
pIC50: −log10 of the molar value. Converted amounts (≈) assume the structure as drawn. Where two headings read alike, the source gives them in different places.

Tests used:
K. pneumoniae = assay: Susceptibility testing (MIC, modified NCCLS method); type: cell-based, Klebsiella pneumoniae; settings: K. pneumoniae (5)
Procedure, shortened: (§1)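 Readout OD600 increase. Compounds (aqueous or DMSO stocks) serially diluted 2-fold across 20 concentrations, then inoculated with bacterial broth culture to final ~1-1.5×10^6 cells/ml; screening-adapted NCCLS microdilution.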

E. coli C(Tem4O-15) = assay: Inhibition of bacterial growth (IC50, OD600); type: cell-based; settings: for pIC50: Escherichia coli
Method: (§2) Compounds of the invention were tested for their ability to inhibit the growth of β-lactam sensitive and resistant bacteria by contacting samples of such cells with various dilutions of the compositions, incubating the cells at 37° C. in the presence of these compositions and then measuring the number of viable cells present in each sample.
(§3) Two compounds of the invention were tested, Compound (9) and Compound (1l). Incubation of bacterial cells was performed for two time periods, 10 hours and 20 hours. Four E. coli strains were used for the test. These strains were all derived from the strain NovaBlue (NovaGen Inc., Madison, Wis.). E. coli N is a normal, β-lactam sensitive strain. E coli R(Tem1) is a β-lactam resistant strain with a β-lactamase gene on a plasmid. E. coli C(Tem4O-15) is a β-lactam resistant strain with a β-lactam inhibitor resistant β-lactamase gene, and E. coli C(Tem3 1-27) is β-lactam resistant strain with an alternative β-lactam inhibitor resistant β-lactamase gene.
(§4) The various E. coli strains were each treated with dilutions of the compounds of the invention. […] The number of viable cells at each time point was determined by measuring the OD600 of each cell sample.
(§5) After measuring the number of viable cells present, the IC50 for each sample was determined. […] In addition, both compounds were effective at inhibiting the growth of both antibiotic sensitive and resistant bacterial cells.

E coli R(Tem1) = assay: Inhibition of bacterial growth (IC50, OD600); type: cell-based; settings: for IC50 ratio N/R: N versus R (Tem1); for pIC50: Escherichia coli
Method: as §2, §3, §4, §5

E. coli C(Tem3 1-27) = assay: Inhibition of bacterial growth (IC50, OD600); type: cell-based; settings: for pIC50: Escherichia coli
Method: as §2, §3, §4, §5

E. coli N = assay: Inhibition of bacterial growth (IC50, OD600); type: cell-based; settings: Escherichia coli
Method: as §2, §3, §4, §5

E. faecalis = assay: Susceptibility testing (MIC, modified NCCLS method); type: cell-based, Enterococcus faecalis; settings: E. faecalis (7)
Procedure, shortened: as §1

[1] = type: physicochemical; settings: 5 h, pH 7.2
Method: Assays were conducted at 37° C. in 100 mM potassium phosphate buffer pH 7.2 with 1 mM EDTA and 0.5 μg/ml TEM-1 β-lactamase. Compound (9) catalysis was determined via fixed time incubations followed by acid quenching. Product formation (triclosan) was determined by integrated peak area of A260 nm following HPLC separation. Hydrolysis product (triclosan) was separated from Compound (9) by use of an HP1100 series HPLC equipped with an Alltech Adsorbosphere HS(C18)5u 150 mm×4.6 mm column. The mobile phase was isocratic containing 55% acetonitrile and 0.1% TFA producing retention times of 20.4 minutes and 24.1 minutes for triclosan and Compound (9), respectively. Quantitation of triclosan was based on the A260 integrated peak area as compared to triclosan standards.
A typical TEM-1 β-lactamase assay is conducted at 37° C. in 1.4 ml of 100 mM potassium phosphate pH 7.2, 1 mM; ethylenediamine tetraacetic acid (EDTA) and 25 nM TEM-1 β-lactamase. A test compound is assayed at several concentrations, for example at 5 and 20 μM. At timed intervals oft=0, 15, 30, 60 and 120 minutes, 200 μl of the assay mixture is withdrawn and added to 8 μl of 10% trifluoracetic acid (TFA) in an high pressure liquid chromatography.(HPLC) microvial. Substrates and products are separated and quantitated via HPLC (described below). […]

E. coli/TEM-1 = assay: Detection of triclosan released from Compound (9) in bacteria; type: cell-based, Escherichia coli; settings: E. coli/TEM-1, after five minutes, 100 μM Compound (9)
Method: E coli N and β-lactamase expressing E. coli/TEM-1 were treated with Compound (9) under the condition described in Example 15. Aliquots of culture were sampled at 0, 5 and 15 minutes. The amount of Compound (9) and triclosan were analyzed by HPLC.
Overnight cultures of both wild-type Escherichia coli N and β-lactamase producing strain Escherichia coli/TEM-1 were diluted 100 times with fresh LB medium and cells were grown for 4 hours at 37° C. (shaking at 230 rpm). Cells were then diluted with fresh LB medium containing 100 μM Compound (9) until the OD600 reached 0.2. Aliquots of the culture were sampled at different timed intervals and the cells were pelleted by centrifugation at 10,000×g for 2 minutes at 4° C. The supernatant was removed and combined with 500 μl acetonitrile. The pelleted bacterial cells were resuspended in 100 μl 133 Phosphate Buffer (GIBCO-BRL, pH8.0) and subjected to 3 cycles of freeze-thawing, followed by addition of 500 μl acetonitrile. Both pellet extracts and supernatant were centrifuged at 10,000×g for 2 minutes at 4° C. 550 μl of the resultant supernatant was transferred into a new Eppendorf tube and vacuum-dried. Dried pellets were resuspended in 50 μl H2O and 100 μl acetonitrile, 75 μl of which was analyzed by HPLC.

With `O=C(Cc1cccs1)N[C@@H]1C(=O)N2C(C(=O)O)=C(COc3cc(Cl)ccc3Oc3ccc(Cl)cc3Cl)CS[C@H]12` [Compound 9, 3-(2-(2,4-Dichlorophenoxy)-5-chlorophenoxy)methyl-7-(2-thienylacetamido)-3-cephem-4-carboxylic acid] the MIC range (K. pneumoniae) was 0.98 to 3.91 µg/mL, the MIC (K. pneumoniae; Klebsiella pneumoniae, read-out: GM* MIC (geometric mean)) was 1.96 µg/mL (≈ 3.13 µM) and the “IC50 ratio (C/R or N/C)” value (E. coli C(Tem4O-15); 10 hours, line of C (Tem40-15)) was “C/R = 117x”. The “IC50 ratio (given C/R or N/R)” value (E. coli C(Tem4O-15); 20 hours, line of C (Tem40-15)) was “C/R = 2.3x”, the pIC50 (E. coli C(Tem4O-15); 10 h, read-out: IC50 10 hours) was 8.79 and the pIC50 (E. coli C(Tem4O-15); 20 h, read-out: IC50 20 hours) was 7.74. For the same molecule, the “IC50 ratio N/R” value (E coli R(Tem1); 10 hours) was “N/R = 1969x”, the “IC50 ratio N/R” value (E coli R(Tem1); 20 hours) was “N/R = 10x” and the pIC50 (E coli R(Tem1); 10 h, read-out: IC50 10 hours, Cell R (Tem1), 10 hours) was 10.02. The pIC50 (E coli R(Tem1); 20 h, read-out: IC50 20 hours, Cell R (Tem1), 20 hours) was 8.38, the “IC50 ratio (C/R or N/C)” value (E. coli C(Tem3 1-27); 10 hours, line of C (Tem31-27)) was “C/R = 90x” and the “IC50 ratio (given C/R or N/R)” value (E. coli C(Tem3 1-27); 20 hours, line of C (Tem31-27)) was “C/R = 2x”. It also gave a pIC50 (E. coli C(Tem3 1-27); 10 h, read-out: IC50 10 hours) of 8.68, a pIC50 (E. coli C(Tem3 1-27); 20 h, read-out: IC50 20 hours) of 7.68 and a pIC50 (E. coli N; 10 h, read-out: IC50 10 hours, Cell N, 10 hours, 37° C.) of 6.72. For the same molecule, the pIC50 (E. coli N; 20 h, read-out: IC50 20 hours, Cell N, 20 hours) was 7.37, the MIC range (E. faecalis) was 8 to 16 µg/mL and the MIC (E. faecalis; Enterococcus faecalis, read-out: GM* MIC (geometric mean)) was 8 µg/mL (≈ 12.8 µM). For the same molecule, the “stability in TEM-1 blank experiment” value [1] was “stable up to 5 hours” and the “Compound (9) hydrolyzed producing an equimolar amount of triclosan” value (E. coli/TEM-1) was “approximately 80%”.
